The source of these data is patent US6828318B2 (priority 2000, dated 2004).

The target of series [1] is PCP site of the NMDA receptor. The experiment in a line: NMDA receptor binding: displacement of [3H]-MK-801 from rat cortical homogenates. As to conditions: rat cortical membranes, 5 nM [3H]-MK-801, 10 μM glutamate, 10 μM glycine; read-out: IC50, potency to displace [3H]-MK-801 from rat cortical homogenates. From the text:
The NMDA receptor contains several distinct binding domains that can regulate opening of the cationic channel. The phencyclidine (PCP) site of the NMDA receptor can be radiolabeled with [^3H]-(+)-5-methyl-10,11-dihydro-5H-dibenzo[a,d]cyclohepten-5,10-imine hydrogen maleate, [^3H-MK-801]. The following describes the procedure for determining the affinity of compounds for the PCP site in rat cortical membranes.
Frozen rat cortex, homogenized in 10 volumes of ice-cold 0.32-M sucrose is centrifuged at 1,000 g for 12 min and the supernatant stored on ice whilst the pellet is resuspended, rehomogenized and recentrifuged twice more. The three final supernatants are pooled and centrifuged at 30,000 g for 40 min at 4° C. to yield P2 pellets. These are resuspended in ice-cold distilled water, and centrifuged at 30,000 g for 50 min at 4° C. Following three further washes in distilled water, the P2 pellets are stored at −20° C. for at least 18 h. On the day of the assay, membrane pellets are thawed at room temperature, resuspended in ice-cold distilled water and centrifuged at 30,000 g for 20 min. The pellets are resuspended in 50-mM tris-HCl (pH:7.4) and recentrifuged twice more before being resuspended in tris-HCl for immediate use in the assay. Binding assays are performed at equilibrium in a total volume of 200 μL, containing [^3H]-MK-801 (5-nM final conc.), 10-μM glutamate, 10-μM glycine, 160 μL of membrane preparation and additional drugs where appropriate. Non-specific binding is determined using MK-801 (10-μM). The assay is incubated for 120 min at room temperature. The incubation is terminated by rapid filtration through Whatman GF/B filters (pre-soaked in 0.1% PEI solution). The assay tubes and filters are washed five times with 1 mL of ice-cold assay buffer. The filters are placed in poly-Q mini vials with approximately 5 mL of scintillation fluid. The vials are then shaken and left for at least 8 h before being counted on a liquid scintillation counter. To determine the free ligand concentration 3 aliquots (20 μL) of the [^3H]-MK-801 working solution are also counted. Concentration response data for drugs is analysed using a 4 parameter equation fitted by non-linear regression. This yields the half maximally effective drug concentration (IC50) and Hill coefficient.
In general terms: Loss of bound radioactivity is the signal in a displacement assay; it reports binding, not function.

Series [2] has as its system male Sprague Dawley rats. The series can be described thus: Assessment of side-effect liability (PCP syndrome), behavioural rating. It counts as in vivo, rat. As for the experimental part:
Side effect liability was assessed by utilising a standardised […] rating of behaviours recognised to be elicited by prototypical psychotomimetic NMDA receptor channel blockers such as phencyclidine and aptiganel (Cerestat™), similar to those reported by Martin et al., Life Sci 1979 24:1699-1703. Groups of eight male Sprague Dawley rats weighing 250-280 g. were placed in Plexiglass chambers and administered test compounds. After 20 minutes the percentage of rats in each group showing the behaviours noted in Table 2 was rated.
Ratings were plotted on ethograms to illustrate the profile of effect of each test compound.

The subject of series [3] is male Sprague Dawley rats. The experiment in a line: Assessment of analgesia: sub-plantar formalin injection into the rat hind paw. Type of series: in vivo. As to conditions: rat formalin test, second phase t=5 to t=30 min, drug 20 min before formalin. The protocol: Analgesia testing was performed in male Sprague Dawley rats weighing 200-250 g. Drugs were administered 20 minutes prior to a sub-plantar injection of formalin into the right hind paw. The characteristic nociceptive behavioural responses elicited by this injection were rated on a scale from “0”=no effect through to “3”=effect of maximal intensity. As with side effect ratings, all observations were made blind to treatment condition. Ratings of nociception related behaviours were made in two time periods, one from the time of injection for a further five minutes (t=0 to t=5 min), and a second from t=5 min to t=30 min. The response to formalin injection in this model is biphasic, the first phase occurring during the first five minutes consists of a primary inflammation related response. The second phase, occurring over the subsequent 30 minutes is a delayed phase in which the phenomenon of “wind up” or neurally mediated hyperalgesia, is thought to occur. It is the second phase of response that has relevance to sciatica, diabetic neuropathy and other neuropathic chronic pain states. Responses to test compounds were assessed during this second phase from t=5 min to t=30 min. Data were analysed by means of Median tests followed by post hoc Bonferroni corrected Mann-Whitney U-tests.

Counter-ions that a name gives are not always drawn.

What is called melting point is the temperature, or range, at which the solid turns liquid. In turn, `Cc1ccc(C2(CC(C)N)C3CC4CC(C3)CC2C4)cc1` (centres unmarked) (as salt: hydrochloride) returned a melting point of 344 to 346 °C. Same read-out and setting: the same measure for `NCCC1(c2cccs2)C2CC3CC(C2)CC1C3` (centres unmarked) (as salt: hydrochloride) [Example 2, 2-[2-[2-(2-Thienyl)]adamantyl]ethylamine hydrochloride]: 250.6 to 251.9 °C. The IC50 is the concentration that gives 50% inhibition. With `NCCC1(c2ccccc2)C2CC3CC(C2)CC1C3` (centres unmarked) [Example 1, 2-[2-(2-Phenyl)adamantyl]ethylamine hydrochloride], the IC50 in series [1] was found to be 1.09 ± 0.4 µM. Further, the “Elicitation of PCP syndrome (PCP related behaviours)” value (“Elicitation of PCP syndrome” for short) in series [2] (rats, intraperitoneal, twenty minutes prior to test, groups of n=8, hydrochloride) is “no tendency to elicit “PCP syndrome.””. The “Minimum effective dose on nociception related behaviours” value (from here on “Minimum effective dose”) in series [3] is 20 mg/kg. As for `CNC1(c2ccccc2Cl)CCCCC1=O` (centres unmarked) [Ketamine, reference compound], the IC50 in series [1] came out at 6.51 ± 4.54 µM. The “Elicitation of PCP syndrome” value in series [2] (rats, intraperitoneal, twenty minutes prior to test, groups of n=8) is given as “produces “PCP syndrome””. Besides, in series [3], the “Minimum effective dose” value worked out at 20 mg/kg. For the compound `NCCC1(c2cccs2)C2CC3CC(C2)CC1C3` (centres unmarked) [Example 2, 2-[2-[2-(2-Thienyl)]adamantyl]ethylamine hydrochloride], the IC50 in series [1] was found to be 2.7 ± 0.54 µM.

Consider `NCCC1(c2ccccc2)C2CC3CC(C2)CC1C3` (centres unmarked) (as salt: hydrochloride) [Example 1, 2-[2-(2-Phenyl)adamantyl]ethylamine hydrochloride], for which the melting point is 278 to 281 °C (dec.).

In the case of `CC12CC3CC(C)(C1)CC(N)(C3)C2` [Memantine, reference compound], the IC50 in series [1] worked out at 6.5 ± 0.94 µM. In series [2] (rat, in vivo, ip), the “Elicitation of PCP syndrome” value is listed as “elicits “PCP syndrome””. Besides, the “Minimum effective dose” value in series [3] was found to be 10 mg/kg. Regarding `NCCC1(Cc2ccccc2)C2CC3CC(C2)CC1C3` (centres unmarked) (as salt: hydrochloride), the melting point fell in the range of 195.8 to 196.8 °C.
